Laboratory results reported in article PMC3680066 (BMC Microbiology, 2013).

Target: leucine aminopeptidase (LAP), pepA (Burkholderia pseudomallei, UniProt Q63WC3)
Assay: biochemical
Conditions: read-out: Relative activity (%)

leucine aminopeptidase (LAP), pepA, sequence (Q63WC3 whole entry, looked up): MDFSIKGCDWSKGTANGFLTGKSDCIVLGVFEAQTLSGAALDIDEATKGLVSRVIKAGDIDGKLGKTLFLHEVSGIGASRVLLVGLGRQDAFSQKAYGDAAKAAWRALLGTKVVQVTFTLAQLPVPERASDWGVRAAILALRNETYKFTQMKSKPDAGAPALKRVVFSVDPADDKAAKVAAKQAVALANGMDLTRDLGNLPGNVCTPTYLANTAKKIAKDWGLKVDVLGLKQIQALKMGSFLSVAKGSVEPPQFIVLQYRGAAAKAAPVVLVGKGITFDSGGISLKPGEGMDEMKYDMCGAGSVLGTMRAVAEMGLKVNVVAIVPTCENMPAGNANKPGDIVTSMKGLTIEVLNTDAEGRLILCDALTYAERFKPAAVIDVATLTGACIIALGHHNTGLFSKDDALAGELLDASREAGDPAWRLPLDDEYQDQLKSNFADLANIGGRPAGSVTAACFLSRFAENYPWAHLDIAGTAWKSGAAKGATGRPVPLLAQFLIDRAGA

SMILES: CC(C)C[C@@H](N)[C@H](O)C(=O)N[C@H](C(=O)N[C@H](C(=O)N[C@@H](CC(=O)O)C(=O)O)C(C)C)C(C)C [amastatin]
- activity at 2000 µM: 0%
